In PubChem BioAssay (NCI) one finds GI50 and TGI data, which are given here for nine compounds.

Structures are written as SMILES. Several values for one entry are separate records, joined by “and”; a condition that tells them apart may be missing. Equal values may be shown once.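 Cultured in 96-well plates, cells were exposed to test compound for 48 hours across five concentrations. Here, GI50 denotes the concentration required for 50% inhibition of growth. At the TGI there is no net growth.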 Bounds are passed on as bounds.

Holding throughout (assay): NCI tumour cell line growth inhibition, 48 h
Test [1] concerns A498 renal.
Test [2] has as its system DU-145 prostate.
For test [3], the system named is HCT-15 colon.
Test [4] has as its system K-562 leukemia.
Test [5] relates to LOX IMVI melanoma.
Test [6] relates to MCF7 breast.
Test [7] deals with MOLT-4 leukemia.
Test [8] concerns OVCAR-4 ovarian.
Test [9] deals with OVCAR-5 ovarian.
Test [10] relates to SK-MEL-5 melanoma.

Take `O=C1C(=O)c2ccccc2C(O)=C1CCCc1ccc(C2CCCCC2)cc1`: the GI50 in test [1] was 2.35 µM; in [2], 5.17 µM; in [3] it was 3 µM; in [4], 3.28 µM; in test [5], 1.15 µM; in test [6] it was 4.17 µM. The GI50 in test [7] was 4.24 µM; in test [8], 3.23 µM; in test [9], 17 µM; in [10] it was 1.52 µM. Besides, the TGI is 20.9 µM in test [1]; 36.5 µM in test [2]; 24.6 µM in [3]; > 100 µM in test [4]; 12 µM in [5]; 34.2 µM in [6]. Besides, the TGI in [7] is > 100 µM; in test [8], > 100 µM; in test [9], 42.2 µM; in test [10], 13.9 µM.
For the compound `Cc1c(N)nc(C(CC(N)=O)NCC(N)C(N)=O)nc1C(=O)NC(C(=O)NC(C)C(O)C(C)C(=O)NC(C(=O)NCCc1nc(-c2nc(C(=O)NCCCNC(C)c3ccccc3)cs2)cs1)C(C)O)C(OC1OC(CO)C(O)C(O)C1OC1OC(CO)C(O)C(OC(N)=O)C1O)c1cnc[nH]1` (configuration not stated), the TGI in test [1] was 27.5 µM; in test [2], 39.2 µM and 55 µM; in test [3], 50 µM and > 100 µM; in test [4], 50 µM and > 100 µM; in [5], 2.3 µM and 10.3 µM; in [6], > 100 µM. The TGI in [7] is 25.9 µM and > 100 µM; in [8], 33.7 µM and > 100 µM; in test [9], 47.2 µM and > 100 µM; in test [10], 14.9 µM and 18.6 µM. In addition, the GI50 was 10.5 µM in test [2]; 26.8 µM in test [3]; 11.8 µM in test [4]; 0.479 µM in test [5]; 3.75 µM in test [7]; 81.5 µM in [8]. Moreover, the GI50 was 2.21 µM in test [9] and 1.51 µM in test [10].
`CC(=O)O[C@H]1C(=O)[C@@]2(C)[C@H]([C@H](OC(=O)c3ccccc3)[C@]3(O)C[C@H](OC(=O)[C@H](OC(=O)OC[C@H]4COC(C)(C)O4)[C@@H](NC(=O)c4ccccc4)c4ccccc4)C(C)=C1C3(C)C)[C@]1(OC(C)=O)CO[C@@H]1C[C@@H]2O`: the GI50 is 0.0545 µM in test [1]; 0.029 µM in test [2]; 0.228 µM in [3]; 0.0122 µM in test [4]; 0.014 µM in test [5]; 0.00506 µM in test [6]. Moreover, the GI50 is 0.0408 µM in test [7], > 33.3 µM in test [8], 0.0433 µM in test [9] and 0.0832 µM in [10]. Also, the TGI is 0.499 µM in [1]; > 33.3 µM in test [3]; > 33.3 µM in test [4]; > 33.3 µM in test [5]; > 33.3 µM in test [6]; > 33.3 µM in test [7]. Moreover, the TGI in test [8], in test [9] and in test [10] was > 33.3 µM in each case.
For the compound `CC(=O)NC(CSC1=C2NC(=O)\C=C/C=C/C=C\C(C)C(O)CC(=O)/C(C)=C\CC(O)/C=C/C(C)C(O)C(C)C=C(C)C(=O)c3c(O)c(C)cc(c3C1=O)C2=O)C(=O)O` (configuration not stated), the TGI in test [1], in test [2], in [3], in [4], in [5] and in [6] was > 100 µM each time. Moreover, the TGI in test [7], in test [8], in test [9] and in test [10] was > 100 µM each time.
Take `CC(=O)OC12c3ccccc3-c3ccccc3C1C(C(=O)O)C2C(=O)O` (configuration not stated): the TGI in [1], in [2], in test [3], in [4], in [5] and in test [6] was > 10 µM each time. Further, the TGI in test [7], in test [8], in test [9] and in [10] was > 10 µM each time.
For the compound `Nc1nc2cc(CC[C@H]3C[C@@H](n4ccc5c(N)ncnc54)[C@H](O)[C@@H]3O)ccc2cc1Br`, the GI50 in test [1] was 2.38 µM; in test [2], 13.1 µM; in test [3], 11.3 µM; in test [4] it was 1.38 µM; in [5], 3.95 µM; in test [6], 1.82 µM. Besides, the GI50 is 2.43 µM in test [7], 2.06 µM in test [8], 14.2 µM in [9] and 0.579 µM in [10]. Besides, the TGI in [1] is 18.9 µM; in test [2], 27 µM; in [3] it was 25.6 µM; in test [4], > 100 µM; in test [5] it was 22.6 µM; in [6] it was 19.1 µM. The TGI in test [7] turned out to be 64.3 µM; in test [8], 19.1 µM; in test [9], 30.1 µM; in test [10] it was 2.98 µM.
`CN(C)CCCC1(c2ccc(F)cc2)OCc2cc(-c3cc4ccccc4s3)ccc21` (configuration not stated): the GI50 in [1] was 1.53 µM; in [2], 1.79 µM; in test [3], 1.69 µM; in test [4], 1.68 µM; in [5], 1.64 µM; in test [6], 1.75 µM. In addition, the GI50 was 1.52 µM in test [7], 1.94 µM in test [8], 1.58 µM in test [9] and 1.69 µM in test [10]. The TGI turned out to be 2.92 µM in test [1]; 3.24 µM in test [2]; 3.13 µM in test [3]; 3.3 µM in test [4]; 3.13 µM in test [5]; 3.47 µM in [6]. Moreover, the TGI was found to be 3.08 µM in test [7], 3.52 µM in test [8], 2.92 µM in test [9] and 3.05 µM in test [10].
As for `Clc1ccc2nc(CI)c(CI)nc2c1`, the GI50 in test [1] was 29.7 µM; in test [2] it was 10.1 µM; in test [3], 3.46 µM; in test [4] it was 1.53 µM; in [5], 1.64 µM; in test [6], 2.87 µM. Moreover, the GI50 is 1.89 µM in test [7], 2.45 µM in [8], 6.98 µM in [9] and 4.59 µM in test [10]. In addition, the TGI in test [1] is > 60.7 µM; in test [2], 23.5 µM; in [3], 12.1 µM; in test [4] it was 7.86 µM; in test [5], 3.37 µM; in test [6], 9.53 µM. For the same compound, the TGI in test [7] was 9.08 µM; in [8], 6.22 µM; in test [9], 19.5 µM; in [10], 14.3 µM.
Turning to `Cn1nc(C(F)(F)F)c(-c2cc(C(F)(F)F)cc(C(F)(F)F)c2)c1-c1ccc(OCc2ccc(Cl)cc2)cc1O`, the GI50 in test [1] was 1.31 µM; in test [2], 3.9 µM; in [3], 2.14 µM; in [4], 0.62 µM; in [5], 1.98 µM; in test [6], 2.23 µM. Also, the GI50 in test [7] is 2.61 µM; in test [8], 2.68 µM; in test [9], 3.29 µM; in test [10], 1.45 µM. The TGI in test [1] turned out to be 5.13 µM; in test [2], 14.8 µM; in test [3] it was 10.7 µM; in test [4] it was 10.1 µM; in test [5], 4.31 µM; in [6], 10.4 µM. The TGI in [7] amounted to 11 µM; in test [8], 13.3 µM; in [9] it was 15 µM; in [10], 3.11 µM.
